From paper PMC10916400, “Effect of the aggregated protein dye YAT2150 on Leishmania parasite viability” (Antimicrobial Agents and Chemotherapy, 2024)

Legend:
L. infantum amastigotes = assay: Amastigote growth inhibition assay (parasite rescue and transformation, RAW 264.7 macrophages); assay type: cell-based, Leishmania infantum; conditions: in vitro
Method: Compound activity on amastigotes was determined following the parasite rescue and transformation assay ([61]). RAW 264.7 macrophages were seeded in 96-well microtiter plates at 10^5 cells/mL of DMEM supplemented with 10% FBS and 1% penicillin-streptomycin (complete DMEM, DMEMc) in a final volume of 200 µL per well. After an overnight incubation (37°C, 5% CO2) to allow cell adherence, the medium was removed and 10^6 L. infantum promastigotes/mL were added (1:10 macrophage:promastigote ratio) in DMEM supplemented with 2% FBS and 1% penicillin-streptomycin (DMEM 2% FBS). After 24 h, parasites not internalized by macrophages were removed by washing (3×, PBS) and dilutions in DMEM 2% FBS of free or liposome-encapsulated compounds were added. After 48 h, the medium was removed, cells were washed three times with PBS, and 40 µL of 0.05% SDS in complete Schneider’s medium was added; after 40 s, 160 additional µL/well of complete Schneider’s medium was added and plates were incubated at 26°C for another 48 h. Then, resazurin sodium salt was incorporated at a final concentration of 0.00125% and plates were incubated for 24 h more in the same conditions. Afterwards, resorufin fluorescence was measured as above.

[1] = Human microsomal stability assay; assay type: in vitro ADME; conditions: 37°C
Method: The following components were added in a 96-well microplate in a final volume of 500 µL 50 mM Na/K phosphate buffer, pH 7.4 (stock solutions are indicated in parentheses, dissolved in the same buffer unless otherwise specified): […] NADP (10 mM), 10 µM glucose 6-phosphate (100 mM), […] glucose 6-phosphate dehydrogenase (40 U/mL, dissolved in 5 mM sodium citrate), 3 µM MgCl2·6 H2O (30 mM, dissolved in H2O), 0.8 mg protein/mL of human microsomes (10 mg/mL protein; XenoTech), and 1 µM of test compound (100 µM, dissolved in ACN). Plates were incubated at 37°C and 75 µL samples were taken at 0, 10, 20, 40, and 60 min, to which 75 µL ACN + internal standard (Rolipram) to inactivate the microsomes and 30 µL of 0.5% formic acid in H2O to improve the chromatographic conditions were added, and kept at 4°C. When all the samples were taken, the plate was centrifuged at 46,000 × g for 30 min at 15°C, and UPLC-MS/MS was performed as above, except for the time in 100% B from 1 to 2.5 min, the return to 95% A:5% B from 2.5 to 2.6 min, and the maintenance of this ratio from 2.6 to 3.0 min. Metabolic stability was calculated from the logarithm of the remaining compound at each of the times evaluated.

[2] = Human hepatocyte stability assay; assay type: in vitro ADME; conditions: 37°C
Method: A vial of human hepatocytes (100 donor pool HCP100.H15/Lot: 2010012; XenoTech, Kansas City, KS, US) was removed from the liquid nitrogen tank and immersed into a water bath. When only a small ice crystal remained, the cell suspension was transferred to a tube with the preheated suspension medium (OptiThaw hepatocyte medium, K8000; XenoTech). After a brief centrifugation at 100 × g for 5 min, hepatocytes were gently resuspended with incubation medium (OptiIncubate hepatocyte medium, K8400; XenoTech) and counted, and viability was determined using trypan blue staining. One-micromolar compounds were incubated at 37°C and 5% CO2 in the presence of 0.5 × 10^6 hepatocytes in a 500-µL incubation volume. Aliquots were taken, and reactions were terminated with ACN at each of the six sampling time points (0, 15, 30, 60, 90, and 120 min). The samples were centrifuged, and the remaining compound was determined by UPLC-MS/MS analysis as above. Intrinsic clearance was calculated from the logarithm of the remaining compound at each of the times evaluated.

**Q.** Which IC50 (L. infantum amastigotes; L. infantum amastigotes in RAW 264.7 macrophages) does the source give for `CCN(CC)c1ccc(/C=C/c2cc[n+](CCCCCCCCCC[n+]3ccc(/C=C/c4ccc(N(CC)CC)cc4)c(C)c3)cc2C)cc1` [YAT2150] here?
**A.** 510 ± 110 nM

**Q.** What about the IC50 (L. infantum amastigotes; Leishmania infantum, RAW264.7, L. infantum amastigotes in RAW 264.7 macrophages) of the same compound?
**A.** ~520 nM

**Q.** And the “t1/2, microsomal stability” value ([1]; human microsomes)?
**A.** 1.34 h

**Q.** And the remaining at 1 h, 1 µM ([1]; human, microsomes, pH 7.4, human microsomes, after 1 h)?
**A.** 55%

**Q.** What about the half-life at 1 µM ([1]; human, microsomes, pH 7.4, human microsomes, read-out: t1/2, microsomal stability) of the same compound?
**A.** 1.33 h

**Q.** And the microsomal CLint at 1 µM ([1]; pH 7.4, human microsomes)?
**A.** 10.6 µL/min/mg

**Q.** What about the hepatocyte CLint at 1 µM ([2]; hepatocytes (cryopreserved, 100 donor pool)) of the same compound?
**A.** 2.5 µL/min/1e6 cells

**Q.** What about the “t1/2, hepatocyte stability” value ([2]; human hepatocytes) of the same compound?
**A.** 4.622 h

**Q.** What about the remaining at 2 h, 1 µM ([2]; human, hepatocytes (cryopreserved, 100 donor pool), after 2 h) of the same compound?
**A.** 70%

**Q.** What about the half-life at 1 µM ([2]; human, hepatocytes (cryopreserved, 100 donor pool), read-out: t1/2, hepatocyte stability) of the same compound?
**A.** 4.62 h
